In US8796333B2, “Method of using β-hydroxy-β-methylbutyrate to treat a condition” (Abbott Laboratories, priority 2005, dated 2014):

Assays:
[1] = tested on: peripheral blood mononuclear cells (PBMC) stimulated with CD3/CD28; assay: Cytokine production by PBMCs stimulated with CD3/CD28 for 24 hours, Bio-plex Cytokine Assay; format: cell-based, human
Protocol: To induce production of cytokines, PBMCs, isolated from peripheral blood of 10 normal healthy donors, are stimulated for 24 hours with the T cell stimulant CD3/CD28. Cytokine production is analyzed using a Bio-plex Cytokine Assay. The Bio-Plex technology is based on antibody-antigen interactions, wherein fluorescently labeled beads conjugated with antibody directed against the cytokine of interest bind target cytokine to the bead. This bead-cytokine complex is then exposed to a biotinylated detection antibody and a streptavidin-PE (phycoerythrin) reporter molecule. The signal from the reporter molecule is directly proportional to the amount of cytokine present, thus enabling cytokine quantification.
Each of the T cell-derived cytokines quantified in the experiment is described in the following table:
A t-test (paired sample, two-tailed) is performed in which a broad range of type 1 and type 2 cytokines are evaluated from cultures with HMB compared to cultures and without HMB.

[2] = tested on: seasonal allergies; assay: Working examples: individuals having or at risk for seasonal allergies given HMB; format: in vivo, human
Protocol: An individual who suffers from seasonal allergies in the spring is given 0.25-1 g of HMB (Nutritional Liquid #5) four times a week for a year. The symptoms of seasonal allergies are reduced the following spring.
The individual is administered 0.1-1.5 g of HMB (Nutritional Liquid #3) once a day for 6 months.

[3] = tested on: asthma; assay: Working examples: individuals having or at risk for asthma given HMB; format: in vivo, human
Protocol: A person who normally has four exacerbations of asthma per year is administered 1-10 g of HMB (Nutritional Liquid #5) four times a week for a year.
A person suffering from moderate persistent asthma is tested to determine the individual's FEV1 percentage value and the value is recorded.
A person suffering from mild intermittent asthma is tested to determine the individual's FEV1 percentage value and a value of 83% is recorded. The individual is then administered 1.5-6 g of HMB 4 times (Nutritional Liquid #5) a week for a year. One year later the individual's FEV1 remains above 80% and symptoms of asthma are reduced.
The individual is administered 250 mg of HMB (Nutritional Liquid #4) once a day for 6 months.

[4] = tested on: ovarian cancer; assay: Working example: individual after chemotherapy for ovarian cancer given HMB; format: in vivo, human; conditions: person after chemotherapy; 2-10 g HMB (Nutritional Liquid #1) four times a week for a year
Protocol: A person who has undergone chemotherapy for ovarian cancer is administered 2-10 g of HMB (Nutritional Liquid #1) four times a week for a year.

[5] = tested on: kidney tumors; assay: Working example: individual treated for kidney tumors given HMB; format: in vivo, human; conditions: person; 750 mg HMB (capsules) four times a week for a year
Protocol: A person diagnosed with and has been treated for kidney tumors is administered 750 mg of HMB (capsules) four times a week for a year.

[6] = tested on: melanoma; assay: Working example: individual treated for melanoma given HMB; format: in vivo, human; conditions: person; 1 g HMB (Nutritional Liquid #1) 4 times a week for a year
[7] = tested on: stress; assay: Working examples: individuals with psychological, surgical or pre-surgical stress given HMB; format: in vivo, human; conditions: person
Protocol: A person suffering from severe symptoms of psychological stress as a result of a burn injury is administered 500 mg (Nutritional Liquid #1) of HMB 4 times a week for a year. One year later the symptoms of psychological stress are reduced.
A person suffering from symptoms of surgical stress is administered 200 mg of HMB (Nutritional Liquid #2) 7 times a week for 2 months. Two months later the symptoms of surgical stress are reduced.
A person suffering from symptoms of pre-surgical stress is administered 200 mg of HMB (capsules) once a day for 3 weeks preceding the individual's scheduled surgery. At the end of the 3 weeks, symptoms of pre-surgical stress are reduced.

[8] = tested on: respiratory tract infections; assay: Working examples: respiratory infections in individuals given HMB; format: in vivo, human; conditions: person recovered from pneumonia; 250 mg HMB (Nutritional Liquid #1) once a day for 6 months
Protocol: A person, after conventional treatment for and recovery from pneumonia, is administered 250 mg of HMB (Nutritional Liquid #1) once a day for 6 months.
A person is training for the New York Marathon. During their training period and for 3 months following the event they take two servings per day of Nutritional formula #6 (containing 1 gram HMB per serving).

[9] = 1 mM, 5 mM and 10 mM HMB, FIG. 3
[10] = 5 mM and 10 mM HMB, PBMC, CD3/CD28, 24 hours, vs no HMB, FIG. 1
[11] = PBMC, CD3/CD28, 24 hours, vs no HMB, FIG. 1
[12] = PBMC, CD3/CD28, 24 hours, vs no HMB, FIG. 2
[13] = person, moderate persistent asthma, 5-10 g HMB (Nutritional Liquid #5) 4 times a week for a year

## CC(C)(O)CC(=O)O [HMB, β-hydroxy-β-methylbutyrate]
[1]; [9]
  IL-2 production relative to IL-5 production: increased
  IL-2 production relative to IL-13 production: increased
[1]; 5 mM and 10 mM HMB, FIG. 3
  IL-2 production relative to IL-4 production: Increases
  IL-2 production relative to IL-10 production: Increases
[1]; 5 mM and 10 mM HMB, FIG. 4
  IL-12 production relative to IL-4: Increases
  IL-12 production relative to IL-5: Increases
  IL-12 production relative to IL-10: Increases
  IL-12 production relative to IL-13: Increases
[1]; 5 mM and 10 mM HMB, FIG. 5
  IFNγ production relative to IL-5: increases
[1]; 5 mM and 10 mM HMB, PBMC of 10 healthy donors, CD3/CD28, 24 hours, vs no HMB, FIG. 1
  IL-2 production (type 1 cytokine): Significant dose response increases
[1]; [10]
  IFNγ production (type 1 cytokine): Significant dose response increases
  IL-12 production (type 1 cytokine): Significant dose response increases
[1]; 10 mM HMB, FIG. 5
  IFNγ production relative to IL-4: Increases
  IFNγ production relative to IL-10: Increases
[1]; 10 mM HMB, PBMC, CD3/CD28, 24 hours, vs no HMB, FIG. 2
  IL-10 production (type 2 cytokine): significant decrease
[1]; [11]
  GC-CSF production: does not significantly affect
  TNFα production: does not significantly affect
[1]; [12]
  IL-4 production (type 2 cytokine): does not significantly affect
  IL-5 production (type 2 cytokine): does not significantly affect
  IL-13 production (type 2 cytokine): does not significantly affect
[2]; individual, 0.25-1 g HMB (Nutritional Liquid #5) four times a week for a year
  symptoms of seasonal allergies the following spring: reduced
[2]; person with family history, no signs at start, 0.1-1.5 g HMB (Nutritional Liquid #3) once a day for 6 months
  signs of seasonal allergies six months later: still shows no signs
[3]; person with family history, no signs at start, 250 mg HMB (Nutritional Liquid #4) once a day for 6 months
  signs of symptoms of asthma six months later: still shows no signs
[3]; person, mild intermittent asthma, baseline FEV1 83%, 1.5-6 g HMB (Nutritional Liquid #5) 4 times a week for a year
  FEV1 one year later: above 80%
[3]; person, mild intermittent asthma, 1.5-6 g HMB (Nutritional Liquid #5) 4 times a week for a year
  symptoms of asthma one year later: reduced
[3]; [13]
  FEV1 one year later: has not decreased
  symptoms of asthma one year later: reduced
[3]; person, normally four exacerbations per year, 1-10 g HMB (Nutritional Liquid #5) four times a week for a year
  asthma exacerbation frequency: decreases to once a year
[4]
  return of ovarian cancer one year later: has not returned
[5]
  spread of kidney tumor six months later: has not spread
[6]
  spread of melanoma six months later: has not spread
[7]; 200 mg HMB (Nutritional Liquid #2) 7 times a week for 2 months
  symptoms of surgical stress, two months later: reduced
[7]; 200 mg HMB (capsules) once a day for 3 weeks before surgery
  symptoms of pre-surgical stress at the end of 3 weeks: reduced
[7]; 500 mg HMB (Nutritional Liquid #1) 4 times a week for a year
  symptoms of psychological stress after burn injury, one year later: reduced
[8]
  respiratory tract infections, including recurrence of pneumonia, during six months: remains free of respiratory tract infections
